In one assay the test system is Propionibacterium acne. Put plainly: MIC in vitro, Propionibacterium acne strains (Table 1). In kind it is cell-based, Propionibacterium acnes. The source says:
(§1) In particular, bacterial strains which should not be affected by topical administration of the anti-acne candidate compound are Staphylococcus aureus, Staphylococcus epidermidis, and Streptococcus pyogenes strains.
(§2) The tests have been carried out in comparison with antibiotic GE 2270 and four representative compounds (B, C, D and E) described in U.S. Pat. No. 5,599,791.

The test system of assay [1] is Staphylococcus epidermidis. Put plainly: MIC in vitro, Staphylococcus epidermidis (Table 1). Format: cell-based. To be noted: ATCC 12228, MH.
From the text: as §1, §2

The test system of a further assay is Streptococcus pyogenes. Put plainly: MIC in vitro, Streptococcus pyogenes (Table 1). In kind it is cell-based. As to conditions: C 203, MH.
From the text: as §1, §2

The subject of a further assay is Staphylococcus aureus. In words: MIC in vitro, Staphylococcus aureus (Table 1). Format: cell-based.
From the text: as §1, §2

Assay [2] concerns clinical isolates of P. acnes displaying antibiotic-sensitive phenotypes. In words: MIC against clinical isolates of P. acnes displaying antibiotic-sensitive phenotypes (Table 3). Format: cell-based, Propionibacterium acnes. As to conditions: Cutibacterium acnes.
From the text: (§3) MIC50 and MIC90 means minimum inhibitory concentration capable of inhibiting 50% and 90%, respectively, of the strains tested.
Assay [3] concerns clinical isolates of P. acnes displaying antibiotic-resistant phenotypes. In words: MIC against clinical isolates of P. acnes displaying antibiotic-resistant phenotypes (Table 2). In kind it is cell-based, Propionibacterium acnes. As to conditions: for Cumul. %: resistant isolates.
From the text: as §3

Results on two compounds are retold here after patent publication US7655676B2, “Use of amide derivative of GE 2270 factor A3 for the treatment of acne” (Naicons S.C.A.R.L., priority 2002, dated 2010).

In brackets after ≈: the same amount, converted by molar mass. Several values for one entry are separate records, joined by “and”; a condition that tells them apart may be missing. Equal entries are not always repeated. A value given as a limit tells only on which side of the number the result lay.

On to GE 2270, for which the MIC is under 0.125 µg/mL in the assay on Propionibacterium acne (ATCC 6919, Wilkins Chalgren (WC)); under 0.125 µg/mL in the assay on Propionibacterium acne (ATCC 6922, WC); under 0.125 µg/mL against Propionibacterium acne (ATCC 25746, WC); <0.125 µg/mL and 0.125 µg/mL against Propionibacterium acne (clinical isolate, WC (one table line per isolate)); under 0.125 µg/mL with Propionibacterium acne (clinical isolate, medium not given); under 0.125 µg/mL in assay [1]. Besides, the MIC in the assay with Streptococcus pyogenes was 0.25 µg/mL; against Staphylococcus aureus (MRSA, MH) it was under 0.125 µg/mL; in the assay on Staphylococcus aureus (Smith ATCC 19636, MH + 30% bovine serum) it was 0.25 µg/mL; in the assay with Staphylococcus aureus (Smith ATCC 19636, Mueller Hinton (MH)), 0.06 µg/mL.
For the compound `CC[C@H]1OC(=O)[C@H](C)[C@@H](O[C@H]2C[C@@](C)(OC)[C@@H](O)[C@H](C)O2)[C@H](C)[C@@H](O[C@@H]2O[C@H](C)C[C@H](N(C)C)[C@H]2O)[C@](C)(O)C[C@@H](C)C(=O)[C@H](C)[C@@H](O)[C@]1(C)O` [Erythromycin], the MIC90 in assay [2] was 0.125 µg/mL (≈ 0.17 µM); in assay [3] (Cutibacterium acnes) it was 2050 µg/mL (≈ 2790 µM). In assay [3] (Cutibacterium acnes), this compound showed an MIC50 of 1020 µg/mL (≈ 1400 µM). In addition, the entries for the “N° isolates” value in assay [3] (resistant isolates with MIC 512 μg/ml), in assay [3] (resistant isolates with MIC 1024 μg/ml) and in assay [3] (resistant isolates with MIC 2048 μg/ml) were 1, 11 and 3, respectively. Further, the Cumul. % in assay [3] (cumulative at MIC 512 μg/ml) is recorded as 7%; in assay [3] (cumulative at MIC 1024 μg/ml) it was 80%; in assay [3] (cumulative at MIC 2048 μg/ml), 100%.
